Assays:
[1] = test system: mononuclear leukocytes of long-term survivors of acute lymphoblastic leukemia (ALL); test: cell surface phenotyping by flow cytometry, cells of ALL patients; format: cell-based, human; conditions: cells of leukemic patients in remission/long-term ALL survivors; compared to media only; days 1-4
Method: (§1) Subject to parental/patient consent, approximately 15 ml of blood was obtained from leukemic patients in remission, long-term survivors of acute lymphoblastic leukemia and normal volunteers. Additional “normal” control samples were collected from the first drawing of blood in sickle cell patients undergoing manual partial exchange transfusion, or samples of blood discarded by the blood bank from normal donors. Patient blood was placed into heparin (1000 USP u/ml). Peripheral blood mononuclear cells (PBMC) were isolated by density gradient centrifugation (400×g, 40 minutes, and 18° C.) with Ficoll Paque Plus (GE Healthcare, Amersham Biosciences; Uppsala, Sweden), followed by washing with phosphate-buffered saline. Plasma was also collected simultaneously and stored at −80° C. until use. […]
(§2) Frozen specimens were thawed in a 37° C. water bath with continuous agitation. […] These cells (frozen/thawed PBMC) were then assessed for viability by trypan blue dye exclusion, counted, and re-suspended in the medium for assay. […]
(§3) At time intervals of 24, 48, 72 and 96 hrs, cell surface phenotyping was performed by flow cytometry. […] Acquisition and Analysis was carried out on fluorescence activated cell sorting (FACS) BD FACS Canto II using FACSDiva v 6.1.2. […] Percentage of cells positive for CD10CD19, CD34CD19 and CD34CD117 were recorded.

[2] = test system: mononuclear cells from "normal"/sickle cell patients (controls); test: cell surface phenotyping by flow cytometry, control cells; format: cell-based, human; conditions: compared to media only, days 1-4
Method: as §1, §2, §3

Aflotoxin B1 [aflotoxin (AT)] was tested, and the “development of cell surface phenotypes characteristic of ALL (CD10/CD19, CD34/CD19, CD34/CD117)” value [1] was “indiscriminately induced increased development” and the “development of cell surface phenotypes characteristic of ALL (CD10/CD19, CD34/CD19, CD34/CD117)” value [2] was “indiscriminately induced increased development”.

Source: US9783785B2, “Screening methods for detection of susceptibility to leukemia and lymphomas” (priority 2010, dated 2017)
